Values after ≈ are worked out from the molar mass of the structure shown.
Conditions: buffer; pH 7.4; 200.0 µM

| SMILES | solubility kinetic |
| --- | --- |
| CCC/C(O)=C1\C(=O)CCCC1=NCCc1c(C)[nH]c2ccccc12 | 34.4 µg/mL (≈ 102 µM) |
| CCOc1ccccc1C(=O)NCCCCNC(=O)c1ccccc1OCC | 10.2 µg/mL (≈ 26.5 µM) |
| Cc1ccc2[nH]c(=O)c(COC(=O)C3CCCCC3)cc2c1 | 2.9 µg/mL (≈ 9.69 µM) |
| CCCNC(=S)Nc1ccc(F)cc1F | > 34.5 µg/mL |
| CC(=O)c1ccc(NC(=S)N2CCCC2)cc1 | 35.4 µg/mL (≈ 143 µM) |
| CN(c1ccccc1)S(=O)(=O)c1ccc2[nH]c(=O)oc2c1 | > 45.6 µg/mL |
| CCC(NC(=O)c1ccccc1NC(=O)C(C)(C)C)C(=O)N1CC(C)OC(C)C1 (stereo not given) | > 60.5 µg/mL |
| O=C(Nc1ccc(OCC(=O)N2CCOCC2)cc1)c1ccccc1F | > 53.8 µg/mL |
| CCCNc1nc(Cl)nc(NC(C)(C)C)n1 | 17.1 µg/mL (≈ 70.2 µM) |
| O=[N+]([O-])c1ccc(N2CCN(Cc3ccncc3)CC2)cc1 | 35.3 µg/mL (≈ 118 µM) |
| CCCC(=O)Nc1ccc(C(=O)COC(=O)c2cc(C)oc2C)cc1 | 6.7 µg/mL (≈ 19.5 µM) |
| CNC(=O)c1c(NC(=O)C2=COCCO2)sc(C)c1C | > 44.5 µg/mL |
| O=C(COc1ccc(C(=O)c2ccccc2)cc1)Nc1ncccc1O | 24.9 µg/mL (≈ 71.5 µM) |
| Cc1ccc(S(=O)(=O)NCc2ccccc2)cc1C(=O)NCc1ccccn1 | 48.1 µg/mL (≈ 122 µM) |
| O=S(=O)(NCCc1ccccn1)c1ccc(-c2ccccn2)s1 | 30.6 µg/mL (≈ 88.6 µM) |
| O=C1CSC(c2cccc([N+](=O)[O-])c2)N1CCc1ccccc1 (stereo not given) | 25.8 µg/mL (≈ 78.6 µM) |
| CN1CC(C(=O)c2ccc(Cl)cc2)C(c2ccccc2)C1 (stereo not given) | 40.1 µg/mL (≈ 134 µM) |
| O=C(Nc1cccc(O)c1)c1cccc(NC(=O)c2cccs2)c1 | > 50.8 µg/mL |
| CCC(C)(C(=O)NC1CCCC1)N(C)C(=O)c1ccccn1 (stereo not given) | > 45.5 µg/mL |
| CC(C)C(=O)Nc1ccc2c(c1)Cc1cc(NC(=O)C(C)C)ccc1-2 | < 0.4 µg/mL |
| COc1cc(/C=C(\C#N)C(=O)N2CCCCC2)ccc1O | > 42.9 µg/mL |
| Br.COc1cccc(CNCC2CCCO2)c1 (stereo not given) | 44.1 µg/mL |
| COc1ccc(C)cc1NC(=O)CN1C(=O)COc2ccc(C)cc21 | 2.1 µg/mL (≈ 6.17 µM) |
| O=C(O)/C=C/C(=O)Nc1ccc(OCc2ccccc2)cc1 | > 44.6 µg/mL |

| SMILES | solubility kinetic |
| --- | --- |
| COc1ccc(CC(=O)OCC(=O)NC2CCCCC2)cc1OC | > 50.3 µg/mL |
| CN(CCc1ccccn1)C(=S)Nc1ccc(Cl)cc1Cl | 46.2 µg/mL (≈ 136 µM) |
| CC1CCN(C(C(=O)O)c2ccccc2)CC1.Cl (stereo not given) | > 40.5 µg/mL |
| CCOc1ccc(NC(=O)c2ccc3[nH]c(=O)c(=O)[nH]c3c2)cc1 | 4.8 µg/mL (≈ 14.8 µM) |
| N#Cc1ccccc1CN1C(=O)NC2(CCCCCC2)C1=O | > 44.6 µg/mL |
| Nc1c(C(=O)O)cnn1-c1ccc([N+](=O)[O-])cc1 | > 37.2 µg/mL |
| Cc1ccc(NC(=O)CSc2nc3sc(C)cc3c(=O)n2C)cc1 | < 0.3 µg/mL |
| CC(=O)c1sc(-c2ccccc2)cc1N | 28.4 µg/mL (≈ 131 µM) |
| COC(=O)CC1C(=O)NCCN1C(=S)Nc1ccccc1Cl (stereo not given) | > 51.3 µg/mL |
| CC(CCc1ccccc1)NC(=O)CCC(=O)N1CCC(C(=O)O)CC1 (stereo not given) | > 54.1 µg/mL |
| Cc1oc(-c2cccc(Br)c2)[n+]([O-])c1C | > 40.2 µg/mL |
| Cc1ccc(S(=O)(=O)NC(=O)N(C)C2CCCCC2)cc1 | > 46.6 µg/mL |
| CC(=O)c1cc(C(C)=O)c(C)nc1C | > 28.7 µg/mL |
| O=C1CSC(c2cccnc2)N1Cc1ccc(Cl)c(Cl)c1 (stereo not given) | 48.7 µg/mL (≈ 144 µM) |
| CN(CC(=O)Nc1cccc(F)c1)CC(=O)N1CCCCC1 | > 46.1 µg/mL |
| COc1ccc(CCNC(=O)C(=O)NCc2cccs2)cc1OC | 21.4 µg/mL (≈ 61.4 µM) |
| CC(=O)N(CN1C(=O)C2C3C=CC(C3)C2C1=O)c1cccc(Cl)c1 (stereo not given) | 50.4 µg/mL (≈ 146 µM) |
| COc1ccc(CNC(=O)COC(=O)c2ccc(Br)c(S(=O)(=O)N3CCOCC3)c2)cc1 | 34.2 µg/mL (≈ 64.8 µM) |
| CCN1CCCC1CNC(=O)C(=O)Nc1ccccc1 (stereo not given) | > 41.3 µg/mL |
| Fc1ccc(NC(=S)N2CCOCC2)c(F)c1 | > 38.7 µg/mL |
| Cc1cc(CSc2ccccc2C(=O)O)on1 | > 37.4 µg/mL |
| Nc1nc(NCC(=O)O)nc(NCc2ccccc2)c1[N+](=O)[O-] | > 47.7 µg/mL |
| O=C(c1ccc(F)cc1)c1ccc(-c2ccc(F)cc2)nc1 | 0.9 µg/mL (≈ 3.05 µM) |
| COc1cc(CNCc2cccc3ccccc23)cc(OC)c1 | 34.1 µg/mL (≈ 111 µM) |

| SMILES | solubility kinetic |
| --- | --- |
| COC(=O)Cc1csc(NCc2ccccc2)n1 | 37.4 µg/mL (≈ 143 µM) |
| N#C/C(=C\N1CCOCC1)S(=O)(=O)c1ccc(Cl)cc1 | 45 µg/mL (≈ 144 µM) |
| CN(C)c1ccc(C(=O)NCC(c2cccs2)N2CCOCC2)cc1 (stereo not given) | 49.3 µg/mL (≈ 137 µM) |
| O=C(CNC(=O)c1ccc(F)cc1)NCc1ccccn1 | > 43.1 µg/mL |
| CCc1ccc(OCC(O)CN2CCCC2)cc1.Cl (stereo not given) | 39.8 µg/mL |
| O=C(COC(=O)c1ccccc1Br)NCCC1=CCCCC1 | 22.5 µg/mL (≈ 61.4 µM) |
| Cc1cc(C)nc(SCc2ccc([N+](=O)[O-])cc2)n1 | 6.1 µg/mL (≈ 22.2 µM) |
| CNC(=O)c1[nH]cnc1C(=O)Nc1ccc(F)cc1 | 1.7 µg/mL (≈ 6.48 µM) |
| COC(=O)c1cccc(N2CCCC2=O)c1 | > 32.9 µg/mL |
| O=C(NC1CCCCC1)c1cc(-c2ccc(F)cc2)on1 | < 0.3 µg/mL |
| COC(=O)CNC(=O)COC(=O)/C=C/c1cccs1 | > 42.5 µg/mL |
| Cn1c(CNC(=O)C2CCCCC2)cc2cc(Cl)ccc21 | < 0.3 µg/mL |
| Cc1cccc(N2CCN(C(=O)c3ccc4nccnc4c3)CC2C)c1 (stereo not given) | > 52 µg/mL |
| O=C(CSc1nc2c(cnn2-c2ccccc2)c(=O)[nH]1)NCC1CCCO1 (stereo not given) | > 57.8 µg/mL |
| CC(=O)c1ccc(NC(=O)Cc2cccs2)cc1 | 37.2 µg/mL (≈ 143 µM) |
| CC(C)N1C(=O)C2(OCCCO2)c2cc(Br)ccc21 | 46.9 µg/mL (≈ 144 µM) |
| Cc1ccc(NC(=O)CN(C)C(=O)c2ccc(Cl)nc2)cc1 | > 47.7 µg/mL |
| Cc1cc(C)c(OCCCON2C(=O)CCC2=O)c(Br)c1 | > 53.4 µg/mL |
| Cc1c(NC(=O)CN2CCCC(C)C2)ccc2nsnc12 (stereo not given) | 42.6 µg/mL (≈ 140 µM) |
| CC(C)C1CC(CCN)(c2ccccc2)CCO1.O=C(O)C(=O)O (stereo not given) | > 50.6 µg/mL |
| CC(C)CC(=O)c1c[nH]c(C(=O)NCc2cccnc2)c1 | 30.9 µg/mL (≈ 108 µM) |
| Cc1cc(C(=O)Nc2cccc3ccccc23)c(C)o1 | 4 µg/mL (≈ 15.1 µM) |
| CCn1cc(C(=O)OC)c(=O)c2ccc(C)nc21 | 36.4 µg/mL (≈ 148 µM) |
| CC(NC(=O)Cc1ccc([N+](=O)[O-])cc1)c1ccc2c(c1)OCO2 (stereo not given) | 7.9 µg/mL (≈ 24.1 µM) |

| SMILES | solubility kinetic |
| --- | --- |
| O=C(NC1CCCc2ccccc21)C12CC3CC(CC(O)(C3)C1)C2 (stereo not given) | 41.4 µg/mL (≈ 127 µM) |
| Cc1ccc(N(C(=O)Nc2ccccc2)C2=NCCC2)cc1 | 4.5 µg/mL (≈ 15.3 µM) |
| Cc1ccc(C)c(OCCC(=O)OCC(=O)NC2CCCC2)c1 | 43.5 µg/mL (≈ 136 µM) |
| Cc1ccc(CC2SC(N=C(N)N)=NC2=O)cc1 (stereo not given) | > 39.3 µg/mL |
| Cc1ccc(NS(=O)(=O)c2ccc3[nH]c(=O)[nH]c3c2)cc1 | 5.4 µg/mL (≈ 17.8 µM) |
| CCc1ccc(OCC(=O)N2CC(C(=O)OC)Oc3ccccc32)cc1 (stereo not given) | 36.6 µg/mL (≈ 103 µM) |
| CN(CC(=O)NCc1ccccc1Cl)CC(=O)Nc1cccc(F)c1 | > 54.6 µg/mL |
| Cc1nn(CC(=O)N(CC(C)C)C2CCS(=O)(=O)C2)c(C)c1[N+](=O)[O-] (stereo not given) | > 55.9 µg/mL |
| C=CCn1c(O)c(C=NC2CCN(Cc3ccccc3)CC2)c(=O)[nH]c1=O | 54.1 µg/mL (≈ 147 µM) |
| COc1cccc(Nc2nc(-c3ccccc3O)nc3ccccc23)c1 | < 0.2 µg/mL |
| CCCCOc1ccc(C(=O)NCCOc2cccc(OC)c2)cc1 | 4 µg/mL (≈ 11.6 µM) |
| Cc1ccc(-c2nnc(SCC(=O)NC3CCCC3)n2N)cc1 | > 49.7 µg/mL |
| O=C(NCc1ccc(F)cc1F)Nc1cnccc1C(F)(F)F | > 49.7 µg/mL |
| CCc1ccccc1NC(=O)C1CCCN(c2ncccn2)C1 (stereo not given) | 8.3 µg/mL (≈ 26.7 µM) |
| Cc1ccc(NC(=O)c2cncc(Br)c2)nc1 | 28.1 µg/mL (≈ 96.2 µM) |
| COC(=O)[C@H](CC(C)C)NC(=O)Nc1ccc(S(N)(=O)=O)cc1 | > 51.5 µg/mL |
| N#Cc1ccc(OCc2noc(-c3ccsc3)n2)cc1 | 0.3 µg/mL (≈ 1.06 µM) |
| O=C(NC1CCCCC1)c1cc(F)cc2c1OCOC2 | 28.9 µg/mL (≈ 103 µM) |
| Cc1nc(CSc2ccc(Cl)cc2)cs1 | 6.9 µg/mL (≈ 27 µM) |
| Cl.Fc1ccc(-c2csc(Nc3ccccn3)n2)c(F)c1 | < 0.2 µg/mL |
| COC(=O)c1sc(NC(=O)/C=C/c2ccccc2Cl)nc1C | 1.5 µg/mL (≈ 4.45 µM) |
| O=C(COC(=O)c1cnccn1)Nc1ccc(Cl)cn1 | > 43.9 µg/mL |
| O=C(NCCN1CCOCC1)C1CC(=O)N(c2ccc(F)cc2)C1 (stereo not given) | 48.8 µg/mL (≈ 146 µM) |
| Nc1ncnc(Oc2cccc3cccnc23)c1[N+](=O)[O-] | 33.8 µg/mL (≈ 119 µM) |

| SMILES | solubility kinetic |
| --- | --- |
| O=C(COC(=O)Cc1ccc(S(=O)(=O)N2CCOCC2)s1)Nc1ccccc1Cl | > 68.8 µg/mL |
| CCN(CC)CC(=O)NCC1(c2ccccc2)CCCC1 | 40.9 µg/mL (≈ 142 µM) |
| CC(C)NC(=O)[C@@H]1CSC2c3ccccc3C(=O)N21 (stereo not given in full) | > 41.5 µg/mL |
| CC1CCCCN1CC(O)COCc1ccccc1.Cl (stereo not given) | > 45 µg/mL |
| c1ccc(CNc2c3ccccc3nc3ccccc23)cc1 | 40.5 µg/mL (≈ 142 µM) |
| Cc1cc(C)n2nc(SCC(=O)N3CCCCC3C)nc2n1 (stereo not given) | > 47.9 µg/mL |
| CC(=O)c1cccc(Nc2cc(C)nc3ccc(C)cc23)c1.Cl | 46.9 µg/mL |
| Cc1cc(C)cc(NC(=O)CCN2C(=O)c3ccccc3C2=O)c1 | 2.5 µg/mL (≈ 7.76 µM) |
| O=S(=O)(c1cc(F)ccc1F)N1CCN2CCCC2C1 (stereo not given) | > 45.4 µg/mL |
| COc1ccc(C2=NOC(C(=O)NCc3cccnc3)C2)cc1OC (stereo not given) | > 51.2 µg/mL |
| COc1ccc(NC(=O)c2ccc3ccccc3c2OC)cc1 | < 0.7 µg/mL |
| CC(=O)c1ccc(OCCCC(=O)NC2CCCCC2C)cc1 (stereo not given) | 25.8 µg/mL (≈ 81.3 µM) |
| Cc1ccc(S(=O)(=O)N(C)C(C)CCc2ccco2)cc1 (stereo not given) | 26.2 µg/mL (≈ 85.2 µM) |
| COC(=O)C(O)(c1ccc(N(C)C)cc1)C(F)(F)F (stereo not given) | 38 µg/mL (≈ 137 µM) |
| CC(=O)c1c(O)c2ccccc2n(Cc2ccccc2)c1=O | 11.8 µg/mL (≈ 40.2 µM) |
| O=C(COC(=O)C1CCCO1)Nc1nc(-c2ccc(F)cc2)cs1 (stereo not given) | > 52.6 µg/mL |
| Cc1cccc(OCCCn2c(=O)oc3ccccc32)c1 | 4.6 µg/mL (≈ 16.2 µM) |
| Cc1ccc(OCC(=O)O/N=C(\N)c2ccccn2)cc1 | > 42.8 µg/mL |
| CCCN(C(=O)CSc1ccccc1C(=O)O)C1CCS(=O)(=O)C1 (stereo not given) | > 55.7 µg/mL |
| CC(=O)Nc1ccc(C(=O)OCC(=O)N2CCCC2)cc1 | > 43.5 µg/mL |
| N#Cc1cccc(C(=O)Nc2cccc(S(=O)(=O)N3CCCC3)c2)c1 | 5.8 µg/mL (≈ 16.3 µM) |
| COc1ccc(CNC(=O)c2cc(C(C)=O)c[nH]2)cc1 | 12.9 µg/mL (≈ 47.4 µM) |
| S=c1nc[nH]c2nc[nH]c12 | 22.5 µg/mL (≈ 148 µM) |
| CN(CC(=O)Nc1cccc(F)c1)C(=O)c1cccc2ccccc12 | > 50.5 µg/mL |
